This is an account of results in patent US7336989B2, “System and method for quantitative or qualitative measurement of exogenous substances in tissue and other materials using laser-induced fluorescence spectroscopy” (priority 2002, dated 2008).

The structures appear in SMILES notation. Several values for one entry are separate records, joined by “and”; a condition that tells them apart may be missing. Equal entries are not always repeated.

This data set is described as follows: Penetration depth of topically applied antibiotics into corneal tissue, by excimer laser ablation and laser-induced fluorescence spectroscopy with PLS model. The format is in vitro ADME. The conditions noted are these: for Antibiotic Penetration Depth (Mean): rinsed, mean of cases (SD in text). On the procedure: The second set of experiments was performed on fresh rabbit corneas. All experiments were performed in compliance with the Association for Research in Vision and Ophthalmology (ARVO) Statement on the Use of Animals in Research. Approval was obtained from the University of California, Irvine, Institutional Care and Use Committee (IACUC) and the IACUC guidelines regarding animal experimentation were followed. New Zealand White rabbit heads were obtained from an abattoir and kept at 4° C. until eyes were enucleated within 7-hours of death to maximize preservation of the corneal epithelium. The globes were stored in a moist chamber at 4° C. for approximately 4 hours until time of use.
The main component, mounted on or above an optical table 21, is the Nidek EC-5000 laser system 22 (Model EC-5000, Nidek Technologies, Inc., Japan) operating at 193 nm. The average laser energy is about 16.4 mJ/pulse measured over a period of 10-s while pulsing at 4 Hz. The eye-fixation LED and the aiming He—Ne laser within the laser system 22 are disabled to avoid their interference with the measured corneal autofluorescence.
During the experiments, the laser 22 is operated to emit a collimated laser beam 23 in the direction of a cornea 24. The laser 22 is operated in its manual mode to pulse the beam 23 at 4 Hz and generate a rectangular spot size of about 2×4.5-mm. The BNC cable connecting the control circuitry of the EC-5000 to the OEM […] excimer laser (Lambda Physik, Fort Lauderdale, Fla.) is tapped using a BNC T-adapter. […]
Each pulse of radiation emitted from the laser 22 ablates a thin layer of the cornea 24. The laser-induced fluorescence (LIF) 32 produced by the ablated cornea 24 is reflected by a 2″ off-axis parabolic mirror 34 (Al, SiO-protected Model A8037-331, Janos Technology Inc., Townshend, Vt.) mounted on a mirror holder 36 that is, in turn, mounted on an XYZ translator 38. […] With each trigger pulse, the spectrograph 26 measures and auto-saves the fluorescence spectrum generated by the corresponding laser pulse.
The cornea 24 was placed epithelium-up (with the exception of the cornea in Example 4) on a circular aluminum tray 42. […] The laser 22 was set to ablate the cornea at 4-Hz for a period of about 7-minutes and the fluorescence spectrum generated by each pulse was measured and saved. […]
In each set of experiments, the measured fluorescence spectra are corrected for dark current and background light, and each spectrum is smoothed using a 5-point moving average window. The series of spectra measured from a given cornea are normalized by the peak value of the first spectrum in the series (i.e. the spectrum of the corneal surface). […]

Take `O=C(O)c1cn(C2CC2)c2cc(N3CCNCC3)c(F)cc2c1=O` [Ciprofloxacin, ciprofloxacin]: the “Antibiotic Penetration Depth (individual cases)” value (enucleated rabbit globes, topical 4 drops for 10 min, then 3 drops for 5 min, rinsed with lactated Ringer's, single cornea per case) was 0.6 μm and 1.5 μm and 0.9 μm. In addition, the “Antibiotic Penetration Depth (Mean)” value turned out to be 1.0 μm (enucleated rabbit globes, topical 4 drops for 10 min, then 3 drops for 5 min) and 1.0±0.5 μm (enucleated rabbit globes, topical 4 drops for 10 min, then 3 drops for 5 min, listed as ciprofloxacin).
In the case of `COc1c(N2CCNC(C)C2)c(F)cc2c(=O)c(C(=O)O)cn(C3CC3)c12` (stereo not shown) [Gatifloxacin, gatifloxacin], the “Penetration of the corneal epithelium (in words)” value is “penetrate the epithelium significantly more than ciprofloxacin”.
